In PubChem BioAssay (NCI):
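Step 1: Grow cells in 96-well plates. Step 2: Expose to compound for 48 hours at 5 concentrations. Step 3: Interpolate endpoints linearly; if unreached, use highest concentration. Definition used: TGI = concentration required for complete inhibition of growth.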

How the values were obtained:
Experiment in all cases: growth of human tumour cells (NCI), 48 h
[1] = test system: SNB-19 CNS
[2] = test system: SK-OV-3 ovarian
[3] = test system: MDA-MB-435
[4] = test system: MALME-3M melanoma
[5] = test system: SNB-75 CNS
[6] = test system: HL-60(TB) leukemia
[7] = test system: U251 CNS
[8] = test system: SK-MEL-28 melanoma
[9] = test system: UACC-257 melanoma
[10] = test system: MDA-N

| SMILES | TGI [1] | TGI [2] | TGI [3] | TGI [4] | TGI [5] | TGI [6] | TGI [7] | TGI [8] | TGI [9] | TGI [10] |
| --- | --- | --- | --- | --- | --- | --- | --- | --- | --- | --- |
| CC(=O)Oc1c(OC(C)C)cc(=O)n2ccsc12 | > 100 µM | > 100 µM | 31 µM | > 100 µM | > 100 µM | 58.7 µM | > 100 µM | > 100 µM | > 100 µM | > 100 µM |
| COc1cc(CC2C(=O)OCC2Cc2ccc(OC)c(OC)c2)ccc1O (stereo not given) | > 100 µM | > 100 µM | > 100 µM | > 100 µM | > 100 µM | > 100 µM | > 100 µM | > 100 µM | > 100 µM | > 100 µM |
| N/N=C(\N)SCc1ccc(N=C=S)cc1 | > 100 µM | > 100 µM | > 100 µM | > 100 µM | > 100 µM | > 100 µM | > 100 µM | > 100 µM | > 100 µM | > 100 µM |
| CSC(=NCCCN=C(NS(=O)(=O)c1ccc(Cl)cc1)SC)NS(=O)(=O)c1ccc(Cl)cc1 | > 100 µM | > 100 µM | > 100 µM | 72.7 µM | > 100 µM | 47.1 µM | > 100 µM | > 100 µM | > 100 µM | 61.4 µM |
| C[C@@H](c1ccccc1)N(CC#N)[C@H]1CCC[C@]1(O)/C=C/c1ccc2c(c1)OCO2 | > 25 µM | > 25 µM | > 25 µM | > 25 µM | > 25 µM | > 25 µM | > 25 µM | > 25 µM | > 25 µM | > 25 µM |
| CO[C@@H](c1ccccc1)[C@H](O)[C@@](O)(c1ccccc1)P(=O)(OC)OC | > 100 µM | > 100 µM | > 100 µM | > 100 µM | > 100 µM | > 100 µM | > 100 µM | > 100 µM | > 100 µM | > 100 µM |
| CCOC(=O)c1c(SCCN(CC)CC)n(-c2ccccc2)c(=S)n(-c2ccccc2)c1=O | 31.9 µM | 40.2 µM | 4.81 µM | 3.06 µM | 23.4 µM | 3.61 µM | 29.6 µM | 11.9 µM | 5.46 µM | 7 µM |
| Cc1cc(NS(=O)(=O)c2ccc(NC(NC(=O)OC(C)C)(C(F)(F)F)C(F)(F)F)cc2)nc(C)n1 | > 100 µM | > 100 µM | > 100 µM | > 100 µM | > 100 µM | > 100 µM | > 100 µM | > 100 µM | > 100 µM | > 100 µM |
| N#Cc1c(N)n(-c2nc3ccccc3s2)c(=O)c2cc([N+](=O)[O-])ccc12 | > 77.1 µM | 98.1 µM | > 69.1 µM | 36.7 µM | > 48.3 µM | 24.9 µM | > 100 µM | > 100 µM | 69.3 µM | > 82.7 µM |
| Cc1nnc(N)s/c1=N/O | > 100 µM | > 100 µM | > 100 µM | > 100 µM | > 100 µM | > 100 µM | > 100 µM | > 100 µM | > 100 µM | > 100 µM |
| CNc1nc(OC)c2c(n1)[n+](C)cn2C | > 100 µM | > 100 µM | > 100 µM | > 100 µM | > 100 µM | > 100 µM | > 100 µM | > 100 µM | > 100 µM | > 100 µM |
| Clc1cc2ncn(C3CCCO3)c2cc1Cl (stereo not given) | > 100 µM | > 100 µM | > 100 µM | > 100 µM | > 100 µM | > 100 µM | > 100 µM | > 100 µM | > 100 µM | > 100 µM |
| CCN(CC)CCCNc1nnc(C)c2[nH]c3ccccc3c12 | > 100 µM | 46.8 µM | 25.9 µM | 29.3 µM | 38.8 µM | 27.4 µM | > 100 µM | 40.6 µM | 31.8 µM | 29.2 µM |
| COc1c(-c2nc3nc(N4CCN(C)CC4)ccc3[nH]2)cc(OC)c2c1nc(CCl)n2C | > 100 µM | 76.6 µM | 38.2 µM | 37.5 µM | 29.8 µM | 53.5 µM | 25.8 µM | 71.7 µM | 78.3 µM | > 100 µM |
| CCCCCCCCCCCCCCCC(=O)OCC(COP(=O)(O)OCCNC(=O)CCSSc1ccccn1)OC(=O)CCCCCCCCCCCCCCC (stereo not given) | > 100 µM | > 100 µM | > 100 µM | > 100 µM | > 100 µM | > 100 µM | > 100 µM | > 100 µM | > 100 µM | > 100 µM |
| CCOP(=O)(OCC)/C(C#N)=C(\C)c1ccco1 | > 10 µM | > 10 µM | > 10 µM | > 10 µM | > 10 µM | > 10 µM | > 10 µM | > 10 µM | > 10 µM | > 10 µM |
| O=C1Cc2c(-c3ccccc3)cc(-c3ccc(Cl)cc3)nc2-c2ccccc2N1 | 6.35 µM | 7.85 µM | > 45.7 µM | > 34.4 µM | 8.77 µM | > 100 µM | 10.5 µM | > 31.8 µM | > 58.2 µM | 35.4 µM |
| CC(C)=C[C@@H]1C[C@H](C)[C@H]2CC[C@H](C)[C@H]3C(=O)C(O)=C(C)C(=O)[C@]123 | > 100 µM | > 100 µM | > 100 µM | > 100 µM | > 100 µM | > 100 µM | > 100 µM | > 100 µM | > 100 µM | > 100 µM |
| CC(=O)CC(=O)N1CCOC1=O | > 10 µM | > 10 µM | > 10 µM | > 10 µM | > 10 µM | > 10 µM | > 10 µM | > 10 µM | > 10 µM | > 10 µM |
| CCOC(=O)c1ccc(-c2cccs2)[nH]1 | > 100 µM | > 100 µM | > 100 µM | > 100 µM | > 100 µM | > 100 µM | > 100 µM | > 100 µM | > 100 µM | > 100 µM |
| CCOC(=O)C1(NC(=O)OC(C)(C)C)CCc2[nH]oc(=O)c2C1 (stereo not given) | > 100 µM | > 100 µM | > 100 µM | > 100 µM | > 100 µM | > 100 µM | > 100 µM | > 100 µM | > 100 µM | > 100 µM |
| CCCCSC1=N/C(=C\c2ccccc2O)C(Cl)=N1 | > 100 µM | > 100 µM | > 100 µM | > 100 µM | > 100 µM | > 100 µM | > 100 µM | > 100 µM | > 100 µM | > 100 µM |
| O=P1(C(O)c2ccccc2)N(Cc2ccccc2)[C@@H]2CCCC[C@H]2N1Cc1ccccc1 (stereo not given in full) | > 100 µM | > 100 µM | 71 µM | 73.1 µM | 55.1 µM | 47.2 µM | > 100 µM | > 100 µM | 56 µM | > 100 µM |
| Cc1ccc(C(=O)C2CC3(CCC2(O)c2ccc(C)cc2)CC(=O)Nc2ccccc2C3=O)cc1 (stereo not given) | > 100 µM | > 100 µM | > 100 µM | > 100 µM | 93.5 µM | > 100 µM | > 100 µM | > 100 µM | > 100 µM | > 100 µM |
| COc1ccc(N=C(SSC(=Nc2ccc(OC)cc2)c2ccc([N+](=O)[O-])o2)c2ccc([N+](=O)[O-])o2)cc1 | 3.26 µM | 11.1 µM | 3.93 µM | 4.14 µM | 2.9 µM | 7.07 µM | 1.62 µM | > 19.7 µM | > 19.9 µM | 12.7 µM |
| COc1ccc2c(C=O)c3n(c(=O)c2c1OC)CCc1cc2c(cc1-3)OCO2 | > 100 µM | > 100 µM | > 100 µM | > 100 µM | > 100 µM | > 100 µM | > 100 µM | > 100 µM | > 100 µM | > 100 µM |
| O=C1CSC(c2cccc(Oc3ccccc3)c2)N1c1cc(Cl)ccc1Cl (stereo not given) | 56.6 µM | > 100 µM | 40.2 µM | 57.6 µM | 62.6 µM | > 100 µM | 33.2 µM | > 100 µM | 50.1 µM | 35.7 µM |
